Reference: patent US8735439B2, “Chlorin e6-folic acid conjugate, preparation method thereof, and a pharmaceutical composition for the treatment of cancer comprising the same” (Diatech Korea Co., Ltd., priority 2009, dated 2014)

Columns and labels:
[1] = in benzol, standard to estimate γ; cited from earlier work
Hela cells [2] = assay: Competition assay with exogenous folic acid, uptake in Hela cells; type: cell-based; details: 4 μM/l folic acid, 24 hours
Source text: Then, the sample was centrifuged, the supernatant was taken, and the pellet was rewashed with cooled Hank's solution. The obtained pellet was again transferred into Hank's solution.

HeLa cell culture = assay: Phototoxicity (photodynamic activity), 3.5 h incubation, 3.3 joule/cm^2; type: cell-based; design: number of HELA cells relative to the control: unit not given here; details: 3.5 hours incubation, photoexposure 3.3 joule/cm^2
Experimental: To examine the photodynamic effects of a photosensitizer on a HeLa cell culture, the photosensitizer solution was added to the nutrient media at a final concentration of 0.1, 0.5, 1.0, 5.0 or 10 mcg/ml on day 3 after transplanting the cell culture into flasks. The flasks were wrapped with a light protecting cover, and incubated at 37° C. for 3.5 hours. Then, the cells were washed with Hank's solution, and exposed on ice by a laser medical device “LD 680-2000” (wavelength: 670-690 nm) at a dose of 3.3 joule/cm^2. After 20-24 hours, the available cell monolayer was dispersed using a 0.02%-Versene solution, and the number of tumor cells was calculated in Goriaev's chamber. For each point, 3 flasks were used.

HeLa tumor cells = assay: Cytotoxicity (antiproliferative assay) in the absence of light exposure; type: cell-based; details: for number of HeLa cells: no light, 24 hours
Experimental: Cytotoxicity was analyzed, considering the intensity of proliferative processes in cells, photosensitizer concentration, and dose of optical power. For each point, 3 flasks with cell monolayer were used.
The monolayer culture of HeLa tumor cells was chosen and used as the cell.
The culture of HeLa tumor cells was grown in nutrient medium 199 or in nutrient medium containing hemohydrolyzate supplemented with 10% fetal bovine serum and […] of kanamycin. […]
Flasks with light-protective cover (dark cytotoxicity) were incubated at 37.5° C. for 1 hour. The cells were washed with Hank's solution 4 times. 2.0 ml of fresh nutrient medium were added, and the cells were irradiated at the temperature of melting ice for 5, 10, 15 or 20 mins by the light flux of a “METALAZ” laser medical device (wavelength: 627.8 nm, 578.2 or 510.6 nm) or “LD 680-2000” (wavelength: 670-690 nm), depending on the wavelength of maximum spectral absorption of the studied photosensitizer, at a dose of 40 J/cm^2. After 20-24 hours, the number of tumor cell was counted in Goriaev's chamber.

Hela cells [3] = assay: Accumulation in Hela cells; type: cell-based; details: for concentration in Hela cells: 2×10^−5 M/l, 37° C.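 For concentration in Hela cells: measured as suspension fluorescence intensity at excitation 405 nm and emission 665 nm.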
Experimental: The cellular accumulation and the targeted delivery of the photoactive compounds were investigated using Hela cells, which is one of the numerous tumor cell types that overexpress folate receptors.
Cells were cultivated for 3 days in medium 199, and transferred to Hank's solution/medium 199 (9/1). After 3 hours, the cell were collected by trypsin treatment from the substrate and placed in Hank's solution (10^5 ? /ml). To cell suspensions, chlorin e6 conjugates were added at a concentration of 2×10^−5 M/l, and incubated at 37° C. After 1, 5, 10, 15, and 24 hours, the samples were centrifuged, the pellet was washed with the cooled Hank's solution, and transferred to Hank's solution at a concentration being equal to that in the initial suspension.

Hela cells [4] = assay: Phototoxicity, 24 h incubation, 1.5-15 joule/cm^2; type: cell-based; details: 670-690 nm
Experimental: In other experiment, the cells were incubated with photosensitizers at 37° C. for 24 hours, and irradiated by exposed on ice by a laser medical device “LD 680-2000” (wavelength of 670-690 nm) in a dose of 1.5-15 joule/cm^2.

[5] = test system: transporter of restored vectors (TRV); details: cited from earlier work; for Km: read-out: KM (affinity of the carrier TRV)

With CCC1=C(CC)c2cc3[n-]c(cc4nc(cc5[n-]c(cc1n2)c(CC)c5CC)C(CC)=C4CC)c(CC)c3CC.[Pd+2] [Pd(II)-octa ethyl porphyrin] as the compound, how does the “γ of the standard” value [1] read?
The value was “one”.

What does the source list for C=Cc1c(C)c2cc3nc(c(CC(=O)O)c4[nH]c(cc5nc(cc1[nH]2)C(C)=C5CC)c(C)c4C(=O)O)C(CCC(=O)O)C3C (stereo not drawn) [chlorin e6, 13-carboxy-17-[2-carboxyethyl]-15-carboxymethyl-17,18-trans-dihydro-3-vinyl-8-ethyl-2,7,12,18-tetramethylporphyrin]?
effect of free folic acid on uptake in Hela cells (Hela cells [2]): no significant effect; number of HELA cells relative to the control (HeLa cell culture; 0.1 mcg/ml): 87.1; number of HELA cells relative to the control (HeLa cell culture; 0.5 mcg/ml): 83.6; number of HELA cells relative to the control (HeLa cell culture; 1.0 mcg/ml): 64.7; number of HELA cells relative to the control (HeLa cell culture; 5.0 mcg/ml): 19; number of HELA cells relative to the control (HeLa cell culture; 10.0 mcg/ml): 3.8; cytotoxicity in the absence of light exposure (HeLa tumor cells; Hela cells, 24 hr incubation): no cytotoxicity; cell survival rate (HeLa tumor cells; Hela cells, 24 hr incubation, absence of light exposure): about 90%; number of HeLa cells (HeLa tumor cells; photosensitizer conc. 1 (μm)): 101.3 percentage of the control; number of HeLa cells (HeLa tumor cells; photosensitizer conc. 2.5 (μm)): 99.1 percentage of the control; number of HeLa cells (HeLa tumor cells; photosensitizer conc. 5.0 (μm)): 98.4 percentage of the control; number of HeLa cells (HeLa tumor cells; photosensitizer conc. 10.0 (μm)): 95.5 percentage of the control; number of HeLa cells (HeLa tumor cells; photosensitizer conc. 20.0 (μm)): 90.0 percentage of the control; number of HeLa cells (HeLa tumor cells; photosensitizer conc. 30.0 (μm)): 89.7 percentage of the control; time in which the majority binds with cells (Hela cells [3]; Hela cells): ≤ 5 h; concentration in Hela cells (Hela cells [3]; incubation 1 hour): 0.86 relative units/10^4 cl.; concentration in Hela cells (Hela cells [3]; incubation 5 hours): 1.45 relative units/10^4 cl.; concentration in Hela cells (Hela cells [3]; incubation 10 hours): 1.72 relative units/10^4 cl.; concentration in Hela cells (Hela cells [3]; incubation 15 hours): 0.81 relative units/10^4 cl.; concentration in Hela cells (Hela cells [3]; incubation 24 hours): 0.40 relative units/10^4 cl.; phototoxicity in survival test (Hela cells [4]): little phototoxicity

What does the source list for Nc1nc(O)c2nc(CNc3ccc(C(=O)N[C@@H](CCC(=O)O)C(=O)O)cc3)cnc2n1 [folic acid, N-[4(2-Amino-4-hydroxypteridin-6-ylmethylamino)benzoyl]-L(+)-glutamic acid]?
affinity of TRV-mediated transport [5]: about 200 μM; Km ([5]; tumor cells): 100 to 200 µM

With CN(Cc1cnc2nc(N)nc(N)c2n1)c1ccc(C(=O)N[C@@H](CCC(=O)O)C(=O)O)cc1 [methotrexate] as the compound, how does the “maximum rate of TRV transport” value ([5]; tumor cells) read?
Its value is 1-12 nmol/min per cellular protein (g).

What about the Km ([5]; tumor cells) of the same compound?
Its Km is 4 to 8 µM.
